“Also recorded” adds a separate entry of the source.
Tests used:
Type in all cases: cell-based
[1] = test system: porcine aortic endothelial cells; assay: DEP device cell deformation (centroid movement) of adhered cells
Method: (§1) Cells were released from tissue culture dishes with trypsin, seeded onto micropatterned PA gels, and 30 minutes was allowed for the cells to attach to the microspots 8. The medium was replaced and the PA gel was washed to remove unattached cells. Cells were then incubated on the micropatterned PA gels for 16-24 hours prior to taking measurements. Before the measurements, the cells were transferred into serum-free CO2-independent medium (Invitrogen™). In some samples, the actin cytoskeleton was disrupted with 200 nM cytochalasin D (Sigma Aldrich) for 15 minutes at room temperature in serum-free CO2-independent medium.
A micropatterned single cell array adhered to a PA gel was mounted on an inverted Olympus IX81 fluorescent microscope. The quadrupole DEP device 100 was attached to a micromanipulator (Eppendorf), and the electrodes were centered and lowered over a single adhered cell within approximately ˜10 μm of the cell. Electrical potential was applied using a function generator (BK Precision 3011B) set to 20 Vpp, 1 MHz. The positive function generator lead was diverted into two separate lines, each going to a resistance decade box, before connecting to diagonally opposing device electrodes as in FIG. 2D. With no extra resistance applied, both electrodes received the same voltage. Increasing resistance to one electrode decreased voltage to that electrode and therefore changed the magnitude of the DEP force as well as the force direction. […]
Bright-field images were taken every 0.5 seconds throughout each measurement. […] Cell deformation was quantified by measuring the distance between cell body centroid and the lower left corner of the cropped image. […]
(§2) Adhered porcine aortic endothelial cells were treated with cytochalasin D to determine the stiffness changes induced by cytochalasin D using the DEP device 100 of the present invention. […] The calculated cell elastic modulus in cytochalasin treated cells was about 0.3 kPa, while the cell elastic modulus in the untreated cells was calculated to be about […] (FIG. 10C).

[2] = test system: porcine aortic endothelial cells; assay: Atomic force microscopy cell stiffness (elastic modulus), cytochalasin D treatment; settings: 200 nM cytochalasin D for 15 minutes
Method: as §1
Atomic force microscopy (AFM, Bioscope DAFM-2X, Veeco) was used to validate DEP device 100 cell stiffness measurements (elastic modulus). A silicon nitride cantilever with 1 μm spherical tip (196 μm long, 23 μm wide, 600 nm thick, spring constant 0.06 N/m, Novascan) was used to indent each measured cell at three distinct locations. […] At least six cells for each cell condition or cell type were measured.
as §2

[3] = test system: Endothelial cells; assay: Atomic force microscopy cell stiffness (elastic modulus) after TNF-α treatment; settings: cells on 55 kPa micropatterned PA gels
Excerpt: Atomic force microscopy (AFM, Bioscope DAFM-2X, Veeco) was used to validate DEP device 100 cell stiffness measurements (elastic modulus). A silicon nitride cantilever with 1 μm spherical tip (196 μm long, 23 μm wide, 600 nm thick, spring constant 0.06 N/m, Novascan) was used to indent each measured cell at three distinct locations. Elastic modulus was estimated by fitting the first 200 nm of the indentation curves to a Hertz model (Solon et al., “Fibroblast adaptation and stiffness matching to soft elastic substrates,” Biophys. J., vol. […], pages 4453-4461, 2007). Three measurements per cell were averaged and defined as the cell stiffness. At least six cells for each cell condition or cell type were measured.
Endothelial cells were cultured for 24 hours on micropatterned PA gels with stiffness of 55 kPa using 25 μm fibronectin circles as the microspots 8 to allow focal adhesion formation. The micropatterned PA gel was used in a DEP device 100 of the present invention provided with a microfluidic chamber 14. The quadrupole electrodes 4 were lowered with a single cell aligned within the cage of each quadrupole electrode 4. TNF-α was introduced to the microfluidic chamber 14 to expose the cells thereto. Cell stiffness or cell elastic modulus of the endothelial cell after TNF-α treatment was measured using AFM.

## C=C1[C@@H](C)[C@H]2[C@H](Cc3ccccc3)NC(=O)[C@]23[C@H](OC(C)=O)/C=C/[C@@](C)(O)C(=O)[C@@H](C)C/C=C/[C@H]3[C@@H]1O [cytochalasin D]
[1]; 200 nM cytochalasin D for 15 minutes, compared with untreated adhered cells under the same DEP force
  cell centroid movement / deformation under dielectrophoretic force: Untreated endothelial cells showed centroid deformations consistently smaller than treated endothelia cells; also recorded: increased
[1]; 200 nM cytochalasin D for 15 minutes, compared with untreated cells
  cell centroid restoration to the center position: slower
[1]; cytochalasin D treatment, three different DEP forces
  cell stiffness (DEP device): decreases cell stiffness
[2]
  calculated cell elastic modulus (AFM): about 0.3 kPa
  cell stiffness / cell modulus (AFM), change compared with untreated cells: decreased the stiffness; also recorded: lower

## TNF-α
[3]
  endothelial cell stiffness / elastic modulus (AFM), change compared with untreated cells: Increased; also recorded: higher
